From patent US9006241B2, “Pyrimidine derivatives” (Noviga Research AB, priority 2011, dated 2015)

Tests used:
Assay type in all cases: cell-based
[1] = tested on: CCRF-CEM cancer cells - leukemia; assay: Fluorometric Microculture Cytotoxicity Assay (FMCA), CCRF-CEM; conditions: Homo sapiens, 72 h incubation
Excerpt: (§1) The Fluorometric Microculture Cytotoxicity Assay, FMCA (Larsson, R., et al.; Anticancer Res, 1989, 9, 1111-1119), is a three day non-clonogenic microplate-based cell viability assay used for measurement of the cytotoxic and/or cytostatic effect of compounds in vitro (Lindhagen, E. et al.; Nat. Protoc., 2008, 3, 1364-1369). FMCA represents a valuable method to measure cytotoxicity in a number of cell types, both cell lines and primary cells from patients (Larsson, R., et al.; Int. J. Cancer, 1992, 50, 177-185; Fridborg, H., et al.; Eur. J. Cancer, 1999. 35, 424-432; Dhar, S., et al.; Br. J. Cancer, 1996, 74, 888-896).
(§2) FMCA is based on the principle that fluorescein diacetate (FDA) is converted to the fluorescent probe fluorescein by esterases in the plasma membranes of living cells. For experiments, 96 or 384-well microplates are prepared with compounds and stored at −70° C. until use. Cells are then seeded into the drug-prepared plates and placed in an incubator for 72 h. On the last day of incubation, the plates are washed and a buffer containing FDA is added and incubated with the cells for 45 minutes. Finally the fluorescence per well is measured in a fluorometer and a Survival Index % (SI) for each compound-treated well is calculated with the equation: Compound-treated cells minus blank divided by control cells minus blank. A high SI-value indicates a large percentage of living cells and vice versa.
In subsequent experiments, compounds were tested, along with a number of approved cancer drugs (dasatinib, pazopanib, sorafenib, and sunitinib) as described above. Initially, the acute lymphoblastic leukemia cell line CCRF-CEM was used throughout. In the assay plates, medium was added to six empty wells (blank wells) and wells were filled with PBS and cell suspension and served as control wells. SI-values were then calculated for each compound-treated well as described above. All experiments were conducted twice and a new batch of plates was prepared for each experiment.
(§3) For dose-response experiments, 384-well plates were prepared as follows:
(§4) Compounds of the invention as well comparative kinase inhibitors sorafenib sunitinib, dasatinib, pazopanib and a reference compound disclosed in WO 2009/071535 (compound #107) were diluted with PBS to a concentration ten-times higher than the desired starting concentration. Then, a Biomek 2000 liquid handling system was employed to serially dilute the compounds in a deep-well 384-well plate. From this plate, assay plates containing 5 μl compound per well were prepared with the Biomek 2000. Certain compounds precipitated when diluted with PBS, and these compounds were therefore prepared in a 96-well plate manually as described above using culture medium RPMI 1640 instead of PBS.
(§5) The compounds were also tested at five concentrations, with five times serial dilution on the following cell types: CCRF-CEM, hTERT-RPE1 (normal retinal epithelial cells), hRPTEpiC (normal renal cells), and peripheral blood mononuclear cells (PBMC). Each experiment was performed three times, except for PBMC and hRPTEpiC, which were performed twice. SI-values were calculated, graphs were plotted using GraphPadPrism 5.0 (GraphPad Software Inc. La Jolla, Calif.) and IC50-values for each cell type and compound were determined from the curves.

[2] = tested on: MDA-MB-231 (breast cancer); assay: FMCA, MDA-MB-231; conditions: Homo sapiens, MDA-MB-231 breast cancer cells
Excerpt: as §1, §2, §3, §4, §5
(§6) The compounds of the invention were also tested on further cancer cell lines related to breast cancer (MDA-MB-231; see e.g. Cailleau, R., et al.; J. Natl. Cancer Inst., 1974, 53, 661-674), teniposide-resistant leukemia (CEM/VM1 see e.g. Danks, M., et al.; Cancer Res., 1987, 47, 1297-1301), leukemia (HL-60; see e.g. Collins, S., et al.; Nature, 1977, 270, 347-349), doxorubicin-resistant lung cancer (H69AR; see e.g. Mirski, S., et al.; Cancer Res., 1987, 47, 2594-2598), myeloma (RPMI 8226; see e.g. Matsuoka, Y., et al.; Proc. Soc. Exp. Biol. Med., 1967, 125, 1246-1250), doxorubicin-resistant myeloma (8226/Dox40; see e.g. Dalton, W., et al.; Blood, 1989, 15, 747-752), lymphoma (U-937, see e.g. Sundström, C., et al.; Int. […]

[3] = tested on: CEM/VM1 (teniposide-resistant leukemia); assay: FMCA, CEM/VM1; conditions: Homo sapiens, CEM/VM1 teniposide-resistant leukemia cells
Excerpt: as §1, §2, §3, §4, §5
as §6, with “Int. J. Cancer, 1976, 17, 565-577), vincristin-resistant lymphoma (U-937-vcr; see e.g. Botling, J., et al.; Int. J. Cancer, 1994, 58, 269-274), ovarian cancer (A2780; see e.g. Hamilton, T., et al.; Semin. Oncol., 1984, 11, 285-298), doxorubicin-resistant ovarian cancer (A2780/Adr), cisplatin-resistant ovarian cancer (A2780/Cis; see e.g. Behrens, B., et al. Cancer Res. 1987, 47, 414-418), pancreatic cancer (PANC-1, BxPC-3, and MIA PaCa-2; see e.g. Lieber, M., et al.; Int. J. Cancer, 1975, 15, 741-747; Loor, R., et al.; Clin. Lab.” for “Int.”

HL-60 (leukemia) = assay: FMCA, HL-60; conditions: Homo sapiens, HL-60 leukemia cells
Excerpt: as §1, §2, §3, §4, §5, §6

[4] = tested on: H69AR (doxorubicin-resistant lung cancer); assay: FMCA, H69AR; conditions: Homo sapiens, H69AR doxorubicin-resistant lung cancer cells
Excerpt: as §1, §2, §3, §4, §5
as §6, with “Int. J. Cancer, 1976, 17, 565-577), vincristin-resistant lymphoma (U-937-vcr; see e.g. Botling, J., et al.; Int. J. Cancer, 1994, 58, 269-274), ovarian cancer (A2780; see e.g. Hamilton, T., et al.; Semin. Oncol., 1984, 11, 285-298), doxorubicin-resistant ovarian cancer (A2780/Adr), cisplatin-resistant ovarian cancer (A2780/Cis; see e.g. Behrens, B., et al. Cancer Res. 1987, 47, 414-418), pancreatic cancer (PANC-1, BxPC-3, and MIA PaCa-2; see e.g. Lieber, M., et al.; Int. J. Cancer, 1975, 15, 741-747; Loor, R., et al.; Clin. Lab.” for “Int.”

RPMI 8226 (myeloma) = assay: FMCA, RPMI 8226; conditions: Homo sapiens, RPMI 8226 myeloma cells
Excerpt: as §1, §2, §3, §4, §5
as §6, with “Int. J. Cancer, 1976, 17, 565-577), vincristin-resistant lymphoma (U-937-vcr; see e.g. Botling, J., et al.; Int. J. Cancer, 1994, 58, 269-274), ovarian cancer (A2780; see e.g. Hamilton, T., et al.; Semin. Oncol., 1984, 11, 285-298), doxorubicin-resistant ovarian cancer (A2780/Adr), cisplatin-resistant ovarian cancer (A2780/Cis; see e.g. Behrens, B., et al. Cancer Res. 1987, 47, 414-418), pancreatic cancer (PANC-1, BxPC-3, and MIA PaCa-2; see e.g. Lieber, M., et al.; Int. J. Cancer, 1975, 15, 741-747; Loor, R., et al.; Clin. Lab.” for “Int.”

[5] = tested on: 8226/Dox40 (doxorubicin-resistant myeloma); assay: FMCA, 8226/Dox40; conditions: 8226/Dox40 doxorubicin-resistant myeloma cells
Excerpt: as §1, §2, §3, §4, §5
as §6, with “Int. J. Cancer, 1976, 17, 565-577), vincristin-resistant lymphoma (U-937-vcr; see e.g. Botling, J., et al.; Int. J. Cancer, 1994, 58, 269-274), ovarian cancer (A2780; see e.g. Hamilton, T., et al.; Semin. Oncol., 1984, 11, 285-298), doxorubicin-resistant ovarian cancer (A2780/Adr), cisplatin-resistant ovarian cancer (A2780/Cis; see e.g. Behrens, B., et al. Cancer Res. 1987, 47, 414-418), pancreatic cancer (PANC-1, BxPC-3, and MIA PaCa-2; see e.g. Lieber, M., et al.; Int. J. Cancer, 1975, 15, 741-747; Loor, R., et al.; Clin. Lab.” for “Int.”

U-937 (lymphoma) = assay: FMCA, U-937; conditions: Homo sapiens, U-937 lymphoma cells
Excerpt: as §1, §2, §3, §4, §5
as §6, with “Int. J. Cancer, 1976, 17, 565-577), vincristin-resistant lymphoma (U-937-vcr; see e.g. Botling, J., et al.; Int. J. Cancer, 1994, 58, 269-274), ovarian cancer (A2780; see e.g. Hamilton, T., et al.; Semin. Oncol., 1984, 11, 285-298), doxorubicin-resistant ovarian cancer (A2780/Adr), cisplatin-resistant ovarian cancer (A2780/Cis; see e.g. Behrens, B., et al. Cancer Res. 1987, 47, 414-418), pancreatic cancer (PANC-1, BxPC-3, and MIA PaCa-2; see e.g. Lieber, M., et al.; Int. J. Cancer, 1975, 15, 741-747; Loor, R., et al.; Clin. Lab.” for “Int.”

[6] = tested on: U-937-vcr (vincristin-resistant lymphoma); assay: FMCA, U-937-vcr; conditions: U-937-vcr vincristin-resistant lymphoma cells
Excerpt: as §1, §2, §3, §4, §5
as §6, with “Int. J. Cancer, 1976, 17, 565-577), vincristin-resistant lymphoma (U-937-vcr; see e.g. Botling, J., et al.; Int. J. Cancer, 1994, 58, 269-274), ovarian cancer (A2780; see e.g. Hamilton, T., et al.; Semin. Oncol., 1984, 11, 285-298), doxorubicin-resistant ovarian cancer (A2780/Adr), cisplatin-resistant ovarian cancer (A2780/Cis; see e.g. Behrens, B., et al. Cancer Res. 1987, 47, 414-418), pancreatic cancer (PANC-1, BxPC-3, and MIA PaCa-2; see e.g. Lieber, M., et al.; Int. J. Cancer, 1975, 15, 741-747; Loor, R., et al.; Clin. Lab.” for “Int.”

A2780 (ovarian cancer) = assay: FMCA, A2780; conditions: Homo sapiens, A2780 ovarian cancer cells
Excerpt: as §1, §2, §3, §4, §5
as §6, with “Int. J. Cancer, 1976, 17, 565-577), vincristin-resistant lymphoma (U-937-vcr; see e.g. Botling, J., et al.; Int. J. Cancer, 1994, 58, 269-274), ovarian cancer (A2780; see e.g. Hamilton, T., et al.; Semin. Oncol., 1984, 11, 285-298), doxorubicin-resistant ovarian cancer (A2780/Adr), cisplatin-resistant ovarian cancer (A2780/Cis; see e.g. Behrens, B., et al. Cancer Res. 1987, 47, 414-418), pancreatic cancer (PANC-1, BxPC-3, and MIA PaCa-2; see e.g. Lieber, M., et al.; Int. J. Cancer, 1975, 15, 741-747; Loor, R., et al.; Clin. Lab.” for “Int.”

[7] = tested on: A2780/Adr (doxorubicin-resistant ovarian cancer); assay: FMCA, A2780/Adr; conditions: A2780/Adr doxorubicin-resistant ovarian cancer cells
Excerpt: as §1, §2, §3, §4, §5
as §6, with “Int. J. Cancer, 1976, 17, 565-577), vincristin-resistant lymphoma (U-937-vcr; see e.g. Botling, J., et al.; Int. J. Cancer, 1994, 58, 269-274), ovarian cancer (A2780; see e.g. Hamilton, T., et al.; Semin. Oncol., 1984, 11, 285-298), doxorubicin-resistant ovarian cancer (A2780/Adr), cisplatin-resistant ovarian cancer (A2780/Cis; see e.g. Behrens, B., et al. Cancer Res. 1987, 47, 414-418), pancreatic cancer (PANC-1, BxPC-3, and MIA PaCa-2; see e.g. Lieber, M., et al.; Int. J. Cancer, 1975, 15, 741-747; Loor, R., et al.; Clin. Lab.” for “Int.”

[8] = tested on: A2780/Cis (cisplatin-resistant ovarian cancer); assay: FMCA, A2780/Cis; conditions: A2780cis, A2780/Cis cisplatin-resistant ovarian cancer cells
Excerpt: as §1, §2, §3, §4, §5
as §6, with “Int. J. Cancer, 1976, 17, 565-577), vincristin-resistant lymphoma (U-937-vcr; see e.g. Botling, J., et al.; Int. J. Cancer, 1994, 58, 269-274), ovarian cancer (A2780; see e.g. Hamilton, T., et al.; Semin. Oncol., 1984, 11, 285-298), doxorubicin-resistant ovarian cancer (A2780/Adr), cisplatin-resistant ovarian cancer (A2780/Cis; see e.g. Behrens, B., et al. Cancer Res. 1987, 47, 414-418), pancreatic cancer (PANC-1, BxPC-3, and MIA PaCa-2; see e.g. Lieber, M., et al.; Int. J. Cancer, 1975, 15, 741-747; Loor, R., et al.; Clin. Lab.” for “Int.”

[9] = tested on: BxPC-3 (pancreatic cancer); assay: FMCA, BxPC-3; conditions: Homo sapiens, BxPC-3 pancreatic cancer cells
Excerpt: as §1, §2, §3, §4, §5, §6

[10] = tested on: PANC-1 (pancreatic cancer); assay: FMCA, PANC-1; conditions: Homo sapiens, PANC-1 pancreatic cancer cells
Excerpt: as §1, §2, §3, §4, §5, §6

[11] = tested on: MIA PaCa-2 (pancreatic cancer); assay: FMCA, MIA PaCa-2; conditions: Homo sapiens, MIA PaCa-2 pancreatic cancer cells
Excerpt: as §1, §2, §3, §4, §5, §6

PC-3 (prostate cancer) = assay: FMCA, PC-3; conditions: PC-3 prostate cancer cells
Excerpt: as §1, §2, §3, §4, §5, §6

COc1ccc2[nH]cc(CCNc3nccc(Nc4ccc5c(c4)cc(C)n5C)n3)c2c1 [Example 13, N^4-(1,2-dimethyl-1H-indol-5-yl)-N^2-[2-(5-methoxy-1H-indol-3-yl)ethyl]pyrimidine-2,4-diamine]
EC50 [1]: 19 nM
EC50 [2]: 380 nM
EC50 [3]: 38 nM
EC50 (HL-60 (leukemia)): 20 nM
EC50 [4]: 120 nM
EC50 (RPMI 8226 (myeloma)): 120 nM
EC50 [5]: 180 nM
EC50 (U-937 (lymphoma)): 30 nM
EC50 [6]: 29 nM
EC50 (A2780 (ovarian cancer)): 64 nM
EC50 [7]: 330 nM
EC50 [8]: 73 nM
EC50 [9]: 130 nM
EC50 [10]: 860 nM
EC50 [11]: 54 nM
EC50 (PC-3 (prostate cancer)): 380 nM
